In article PMC4444337 (PLoS ONE, 2015):
Values joined by “and” are separate entries in the source; they are usually repeats but may differ in a detail not shown here. Equal entries are not always repeated.

How the values were obtained:
RSV [1] = test system: RSV; set-up: method as in PMID 19707346, PMID 9359721; conditions: pediatric patients; cited from earlier work
RSV [2] = test system: RSV; set-up: method as in PMID 19707346, PMID 9359721; conditions: cotton rat model; cited from earlier work
RSV subgroup A strain A2 [3] = assay: RSV viral load (qRT-PCR, RSV-A F gene) in BALF/throat after RSV A2 challenge; assay type: in vivo, African green monkeys; conditions: for Peak log VL (Median) in BALF: qRT-PCR
Protocol: In Study 1 all animals were followed until day 13 post-inoculation, when the necropsy took place.
In Study 2 all animals were followed until day 15 post-inoculation, when the necropsy took place.
Bronchoalveolar lavage fluid (BALF), nasal and throat swabs and blood samples were collected every 2 days from day 1 postinfection up to day 11 (study 1) and day 13 (study 2). For BALF collection, monkeys were sedated with […] (0.02–0.05 mg/kg) administered intramuscularly to allow passage of sterile laryngoscope and endotracheal tube. BAL was performed by laryngoscopy by inserting a shortened Kendall Sovereign feeding tube and urethral catheter through the endotracheal tube and approximately 10 mL of phosphate buffer saline (10 mL, pH 7.4) was instilled and gently suctioned back into the syringe promptly to recover approximately 5–7 mL of BAL in the syringe. Later, the adjustment of the dilution was done based on urea and protein concentration. White blood cell (WBC) count from BALF was analyzed using automated blood analysis instrumentation (Antech Diagnostics, Lake Success, NY, USA).
All animals were challenged with 1.5mL of 1 × 10^4 pfu/mL RSV subgroup A—strain A2 virus intranasally (i.n.) and intratracheally (i.t.) on day 0. […] The virus was thawed at room temperature and immediately put on ice.
For each inoculation, 1.5 mL were aspirated with a 3 mL syringe. After being anesthetized with 10 mg/mL ketamine, the animals were placed in dorsal recumbency. 0.25 mL of the virus was instilled drop-by-drop into each nostril and allowed to absorb for 20 sec. Once the absorption was complete, a Kendall Sovereign Feeding Tube and Urethral Catheter, Size 5 Fr, was trimmed about one inch on each side and inserted intratracheally using a laryngoscope. Once in place, 1mL of virus was instilled and flushed into the trachea with 7 mL of air.
RNA was extracted using a previously described protocol.
RSV was quantified using one-Step RT-PCR Master Mix reagents (Applied Bio systems, USA). Amplification and detection were performed in a ABI PRISM 7700 Sequence Detection System (Applied Biosystems, USA) under the following conditions: an initial reverse transcription at 48°C for 30 minutes, followed by PCR activation at 95°C for 10minutes and 45 cycles of amplification (15 sec at 95°C and 1minutes at 60°C).
The IEC-B assay was run as control. The viral load (VL) was expressed as RSV A-F copy numbers and transformed in Δ log10 values. The limit of detection was 10 copies of RSV F gene. The antiviral effect was calculated as differences between peak VL and area under the curve (AUC) VL based on Δ log10 RSV from different groups.

RSV subgroup A strain A2 [4] = assay: Lung histopathology (inflammation) in RSV-infected animals; assay type: in vivo, African green monkeys
Protocol: Tissues (administration site, heart, liver, lung, pancreas, skeletal muscle and trachea) were fixed in 10% phosphate-buffered formalin, paraffin-embedded, sectioned at 5 μm, stained with hematoxylin-eosin (H&E) and evaluated microscopically. For the lung, histological examination was performed on the right lung only, the left lung lobe was sampled for bioanalytical purposes. At tissue trimming, representative cross sections were taken from the cranial, mid and caudal lung lobe in all animals including the central part (with large bronchus) and the peripheral part. Three lung sections per animal (cranial, mid and caudal lobe) with two samples each (central and peripheral) were evaluated for each animal. To facilitate comparison between groups, a general overall score for inflammation was given for each lung section. Mean inflammatory scores were determined for each animal (mean of 3 lung lobes) and per dose group (S2 Fig).
The necropsy was performed at day 13 for Study 1 and at Day 15 for Study 2. Before necropsy, a sample for complete blood count and plasma sample was taken. Euthanasia procedures adhered to the current Report of the American Veterinary Medical Association Panel on Euthanasia. The anesthesia was performed with a combination of ketamine hydrochloride (7–15 mg/kg) and either acetylpromazine maleate (acepromazine) (0.55 mg/kg) or xylanin (Rompun) (0.6 mg/kg) followed by exsanguinations via the femoral vein. The blood taken was recorded. Thereafter, an injection of 390 mg/kg sodium pentobarbital intravenously was given. Death was defined as the cessation of respiration and of heartbeat. The necropsy was performed according to BIOQUAL SOPs and a board-certified veterinary pathologist from the Charles River Laboratories, Pathology Associates Division (PAI) was present at necropsy.

IL8 = IL8 in BALF (Luminex) after RSV challenge; assay type: in vivo, African green monkeys; conditions: both studies
Protocol: The following monkey-specific cytokines were determined in BALF using a Luminex bead analysis according to the manufacturer's protocol: Interleukins (IL)-1b, IL-2, IL-4, IL-5, IL-6, IL-8, IL-10, Interferons (IFN)γ, IFNα, Tumor necrosis factor (TNF)α, Regulated on Activation, Normal T Cell Expressed and Secreted (RANTES), and Macrophage inflammatory protein (MIP)-1α. The non-human primate Luminex beads for IFNγ, IFNα, and IL-10 were provided by Texas Biomedical Research Institute (Texas, USA). The beads for the remaining cytokines were obtained from Millipore (Billerica, MA, USA). The samples for cytokine determination were run in duplicates. Human cytokine standards were used for standard curves and for determination of the lower limit of detection for individual cytokines. The results were read using a Luminex 100 System (Texas, USA).

RSV [5] = test system: RSV; set-up: method as in PMID 21148224, PMID 17722899; conditions: single administration, cited from earlier work
[6] = Safety analysis: clinical symptoms, blood counts, serum chemistry; assay type: in vivo, African green monkeys; conditions: compound treated vs vehicle treated groups
Protocol: The animals were monitored for clinical symptoms such as body temperature changes indicating a fever, signs of a cold, runny nose, sneezing, loss of appetite, and body weight. Blood counts and serum chemistry were assessed every second day. The safety findings were compared between the vehicle groups and the compound groups, to identify possible compound related adverse events.

RSV [7] = test system: RSV; set-up: method as in PMID 21148224; conditions: slow single bolus injection; cited from earlier work
RSV [8] = conditions: cited from earlier work
RSV-A virus = conditions: read-out: EC50 on Hep2 cells, for RSV-A virus; cited from earlier work

Compound: palivizumab: humanized monoclonal antibody indicated for RSV prophylaxis in high-risk children
- Exposure levels required to achieve 50% prophylactic effectiveness (RSV [1]): 37 to 72 µg/mL
- Exposure level to achieve complete inhibition of the RSV shedding (RSV [2]): 40 µg/mL

Compound: Cc1ccc(CCCO)c(NCc2ccc3nc(NCCCN4CCOCC4)n(Cc4nc(C)ccc4O)c3c2)c1 [TMC353121]
- Plasma exposure at which complete inhibition of RSV shedding was observed (RSV subgroup A strain A2 [3]; Px500 arm): 0.39 µg/mL
- Timing of peak viral shedding (RSV subgroup A strain A2 [3]; Study 1, Px50, 3 out of 5 animals): delayed peak viral shedding from day 7 to day 9
- Peak log VL (Median) in BALF (RSV subgroup A strain A2 [3]; Study 1, Px50, vehicle Vh1 8.15): 6.88 log10
- Δ log (Median): reduction in peak VL vs vehicle treated group, BALF (RSV subgroup A strain A2 [3]; Study 1, Px50 vs Vh1): -1.06 log10
- Decrease in peak VL in BALF compared with the control group (RSV subgroup A strain A2 [3]; Study 1, Tx50): 1.15 log10
- Peak log VL (Median) in BALF (RSV subgroup A strain A2 [3]; Study 1, Tx50, vehicle Vh1 8.15): 7 log10 and 7.00 log10
- Δ log (Median): reduction in peak VL vs vehicle treated group, BALF (RSV subgroup A strain A2 [3]; Study 1, Tx50 vs Vh1): -1.1 log10
- Peak log VL (Median) in BALF (RSV subgroup A strain A2 [3]; Study 2, Px5, vehicle Vh2 5.17): 5.23 log10
- Δ log (Median): reduction in peak VL vs vehicle treated group, BALF (RSV subgroup A strain A2 [3]; Study 2, Px5 vs Vh2): 0 log10
- Viral replication during the entire study (RSV subgroup A strain A2 [3]; Study 2, Px500, except one animal with a viral blip at day 10): complete inhibition of viral replication
- Peak log VL (Median) in BALF (RSV subgroup A strain A2 [3]; Study 2, Px500, vehicle Vh2 5.17): 0 log10
- VL in BAL 24h after the drug infusion was stopped (RSV subgroup A strain A2 [3]; Study 2, one Px500 animal, day 10, below limit of detection at day 9 in presence of drug): 2 log
- Antiviral activity across dose groups (RSV subgroup A strain A2 [3]; from 1log10 reduction of peak viral load to complete inhibition of RSV replication): dose-dependent antiviral activity
- Delay in peak viral shedding (RSV subgroup A strain A2 [3]; prophylactic administrations (Px50, Px5)): 2 days
- Peak VL reduction (RSV subgroup A strain A2 [3]; therapeutic (+1day postchallenge) or prophylactic administration at exposure levels 3- to 5-fold above the EC50c): 1 log10
- Lung histopathology: improvement (RSV subgroup A strain A2 [4]; Study 1, Tx50 and Px50 groups): No improvement on lung histopathology
- Lung histopathology: inflammatory changes (RSV subgroup A strain A2 [4]; Study 2, Px5 group (as vehicle control), slight to marked degree): very pronounced (inflammatory) changes
- Lung histopathology: inflammatory changes (RSV subgroup A strain A2 [4]; Study 2, Px500 group, minimal to occasionally slight degree): much less pronounced changes
- IL8 production in BALF, control vs treated animals (IL8): no significant reduction in IL8 production
- Antiviral effect in treated compared with untreated groups (RSV [5]; mice): 0.5–1 log
- Lung histopathology in mice (RSV [5]): improved lung histopathology
- Drug related adverse events (clinical symptoms, blood counts, serum chemistry) [6]: no drug related adverse events were observed
- Antiviral activity in rodent models of RSV infection (RSV [7]): significant antiviral activity
- pEC50 (anti-RSV activity) (RSV [8]): 9.9

Compound: NC(=O)c1ncn([C@@H]2O[C@H](CO)[C@@H](O)[C@H]2O)n1 [ribavirin]
- EC50 (RSV-A virus): 30 µM
